Test results published in ChEMBL document CHEMBL4138213, “Synthesis and biological characterization of ubenimex-fluorouracil conjugates for anti-cancer therapy” (Eur J Med Chem, 2018).
Activity calls are given as the source filed them. The rule behind the calls is not given here.

Tests used:
Aminopeptidase N = molecular target: T1, Aminopeptidase N (Sus scrofa, UniProt P15145); test: Inhibition of porcine kidney CD13 using L-leucine-p-nitroanilide as substrate preincubated for 5 mins followed by substrate addition measured after 30 mins
T1 sequence (P15145 whole entry): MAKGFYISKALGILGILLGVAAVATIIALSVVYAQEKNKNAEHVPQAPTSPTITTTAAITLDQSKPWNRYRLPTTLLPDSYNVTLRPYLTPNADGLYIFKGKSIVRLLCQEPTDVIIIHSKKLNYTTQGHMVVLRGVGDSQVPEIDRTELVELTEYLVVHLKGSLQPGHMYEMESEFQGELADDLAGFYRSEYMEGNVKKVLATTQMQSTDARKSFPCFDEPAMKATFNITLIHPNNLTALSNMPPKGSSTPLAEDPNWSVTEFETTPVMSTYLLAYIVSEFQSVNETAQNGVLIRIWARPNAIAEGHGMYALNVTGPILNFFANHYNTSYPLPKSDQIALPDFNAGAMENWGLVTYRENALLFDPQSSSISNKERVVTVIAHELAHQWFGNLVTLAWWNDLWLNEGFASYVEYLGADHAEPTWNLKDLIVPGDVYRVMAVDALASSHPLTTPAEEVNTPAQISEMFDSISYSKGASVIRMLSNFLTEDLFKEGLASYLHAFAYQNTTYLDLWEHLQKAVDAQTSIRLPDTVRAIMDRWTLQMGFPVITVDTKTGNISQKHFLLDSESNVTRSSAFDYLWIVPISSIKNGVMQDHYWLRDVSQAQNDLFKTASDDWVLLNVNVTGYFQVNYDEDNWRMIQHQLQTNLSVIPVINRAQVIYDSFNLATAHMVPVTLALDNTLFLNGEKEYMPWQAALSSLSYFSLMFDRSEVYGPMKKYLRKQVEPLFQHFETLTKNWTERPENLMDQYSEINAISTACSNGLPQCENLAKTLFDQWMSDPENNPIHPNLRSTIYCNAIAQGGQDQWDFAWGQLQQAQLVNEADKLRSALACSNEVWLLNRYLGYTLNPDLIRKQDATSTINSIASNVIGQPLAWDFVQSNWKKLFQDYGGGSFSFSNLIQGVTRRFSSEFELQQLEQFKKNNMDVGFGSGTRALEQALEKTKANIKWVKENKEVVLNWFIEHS

PLC-PRF-5 [1] = test: Antiproliferative activity against human PLC/PRF/5 cells after 48 hrs by MTT assay; details: PLC-PRF-5, 48 h
U-266 = test: Antiproliferative activity against human U266 cells after 48 hrs by MTT assay; details: U-266, 48 h
A549 = test: Antiproliferative activity against human A549 cells after 48 hrs by MTT assay; details: A549, 48 h
[2] = Antiproliferative activity against human H7402 cells after 48 hrs by MTT assay; details: H7402, 48 h
PLC-PRF-5 [3] = test: Anticlonogenic activity against human PLC/PRF/5 cells after 2 weeks by Giemsa staining-based inverted microscopic method; assay type: functional, cell-based
PLC-PRF-5 [4] = test: Induction of apoptosis in human PLC/PRF/5 cells assessed as early apoptotic cells at 20 uM after 48 hrs by annexin-V-FITC/propidium iodide staining-based flow cytometric method (reference value: 5.82%); assay type: functional
PLC-PRF-5 [5] = test: Induction of apoptosis in human PLC/PRF/5 cells assessed as late apoptotic cells at 20 uM after 48 hrs by annexin-V-FITC/propidium iodide staining-based flow cytometric method (reference value: 0.341%); assay type: functional
PLC-PRF-5 [6] = test: Induction of apoptosis in human PLC/PRF/5 cells assessed as necrotic cells at 20 uM after 48 hrs by annexin-V-FITC/propidium iodide staining-based flow cytometric method (reference value: 0.106%); assay type: functional
PLC-PRF-5 [7] = test: Induction of apoptosis in human PLC/PRF/5 cells assessed as viable cells at 20 uM after 48 hrs by annexin-V-FITC/propidium iodide staining-based flow cytometric method (reference value: 93.7%); assay type: functional; details: PLC-PRF-5, 48 h, read-out: Activity
PLC-PRF-5 [8] = test: Induction of reactive oxygen species formation in human PLC/PRF/5 cells at 10 uM by DCF-DA staining-based flow cytometric method; assay type: functional, cell-based; details: TDE = time-dependent effect
PLC-PRF-5 [9] = test: Downregulation of CD13 expression in human PLC/PRF/5 cells at 10 uM after 48 hrs by flow cytometric method; assay type: functional, cell-based
Thoracic aorta = test: Antiangiogenic activity in Wistar rat thoracic aorta ring assessed as inhibition of microvessels sprouting at 20 ug/ml treated every other day for 9 days; assay type: functional, tissue-based
Homo sapiens = species: Homo sapiens; test: Antiinvasive activity in human ES2 cells at 5 ug/ml after 24 hrs by transwell assay; assay type: functional, cell-based
[10] = Drug metabolism in human plasma assessed as 5-FU formation at 4 mg/ml after 8 hrs by HPLC method; assay type: ADME, cell-free
[11] = Drug metabolism in Wistar rat plasma assessed as carboxylesterase-mediated 5-FU formation at 80 mg/kg, iv by HPLC-MS/MS analysis; assay type: ADME, organism-based; details: in vivo
[12] = Drug metabolism in Wistar rat plasma assessed as peptidase-mediated ubenimex formation at 80 mg/kg, iv by HPLC-MS/MS analysis; assay type: ADME, organism-based; details: in vivo
[13] = Drug metabolism in Wistar rat plasma assessed as carboxylesterase-mediated 2-((S)-2-((2S,3R)-3-amino-2-hydroxy-4-phenylbutanamido)-4-methylpentan-amido)-acetic acid formation at 80 mg/kg, iv by HPLC-MS/MS analysis; assay type: ADME, organism-based; details: in vivo
H22 [14] = test: Antitumor activity against […] cells xenografted in iv dosed mouse administered 5 days per week for 2 weeks; assay type: functional, organism-based
H22 [15] = test: Antitumor activity against 5-FU-resistant […] cells xenografted in Kunming mouse at 82 mg/kg, iv after 14 days; assay type: functional, organism-based
Mus musculus [16] = test: Toxicity in Kunming mouse xenografted with 5-FU-resistant […] H22 cells assessed as mortality at 82 mg/kg, iv after 14 days; assay type: organism-based; details: in vivo, 336 h
Mus musculus [17] = test: Toxicity in Kunming mouse xenografted with 5-FU-resistant […] H22 cells assessed as body weight loss at 82 mg/kg, iv measured for 14 days during compound dosing; assay type: organism-based; details: in vivo, 336 h
H22 [18] = test: Antimetastatic activity in […] cells xenografted in iv dosed mouse assessed as decrease in lung metastasis nodus number administered 5 days followed by 2 days of withdrawal; assay type: functional, organism-based
[19] = AUC (0 to infinity) in Wistar rat at 80 mg/kg, iv after 0.05 to 24 hrs by HPLC-MS/MS analysis; assay type: ADME, organism-based; parameters: dose 80 mg/kg, time infinity, route intravenous; details: in vivo
Rattus norvegicus [20] = test: MRT (0 to infinity) in Wistar rat at 80 mg/kg, iv after 0.05 to 24 hrs by HPLC-MS/MS analysis; assay type: ADME, organism-based; details: in vivo
Rattus norvegicus [21] = test: VRT (0 to infinity) in Wistar rat at 80 mg/kg, iv after 0.05 to 24 hrs by HPLC-MS/MS analysis; assay type: ADME, organism-based; details: in vivo
[22] = Apparent clearance in Wistar rat at 80 mg/kg, iv after 0.05 to 24 hrs by HPLC-MS/MS analysis; assay type: ADME, organism-based; details: in vivo, read-out: CL(app) (converted)
[23] = Volume of distribution during elimination phase in Wistar rat at 80 mg/kg, iv after 0.05 to 24 hrs by HPLC-MS/MS analysis; assay type: ADME, organism-based; details: in vivo, read-out: Vz
Rattus norvegicus [24] = test: Terminal Half life in Wistar rat at 80 mg/kg, iv after 0.05 to 24 hrs by HPLC-MS/MS analysis; assay type: ADME, organism-based; details: in vivo
[25] = Cmax in Wistar rat at 80 mg/kg, iv after 0.05 to 24 hrs by HPLC-MS/MS analysis; assay type: ADME, organism-based; parameters: dose 80 mg/kg, route intravenous; details: in vivo
cells = details: Homo sapiens, ES-2, 48 h
Description: Antiproliferative activity against human ES2 cells after 48 hrs by MTT assay

U-937 = test: cells; details: Homo sapiens, U-937, 48 h
Description: Antiproliferative activity against human U937 cells after 48 hrs by MTT assay

HCT-116 = test: cells; details: Homo sapiens, HCT-116, 48 h
HepG2 = test: cells; details: Homo sapiens, HepG2, 48 h

SMILES: CC(C)C[C@H](NC(=O)[C@@H](O)[C@H](N)Cc1ccccc1)C(=O)NCC(=O)OCn1cc(F)c(=O)[nH]c1=O.Cl
- IC50 (Aminopeptidase N): 0.18 µM
- IC50 (PLC-PRF-5 [1]): 16.5 µM
- IC50 (U-266): 31.6 µM
- IC50 (A549): 15.3 µM
- IC50 [2]: 19.9 µM
- Activity (PLC-PRF-5 [3]): Dose-dependent effect
- Activity (PLC-PRF-5 [4]): 24.2%
- Activity (PLC-PRF-5 [5]): 4.69%
- Activity (PLC-PRF-5 [6]): 0%
- viability at 20 µM (PLC-PRF-5 [7]): 71.1%
- Activity (PLC-PRF-5 [8]): Tde
- Activity (PLC-PRF-5 [9]): Active
- Activity (Thoracic aorta): Active
- Activity (Homo sapiens): Active
- Drug metabolism [10]: Metabolite_Detected
- Drug metabolism [11]: Metabolite_Detected
- Drug metabolism [12]: Metabolite_Detected
- Drug metabolism [13]: Metabolite_Detected
- Activity (H22 [14]): Dose-dependent effect
- Activity (H22 [15]): Active
- Activity (Mus musculus [16]): Non-Toxic
- Activity (Mus musculus [17]): Non-Toxic
- Activity (H22 [18]): Dose-dependent effect
- AUC(0-inf) [19]: 14700 ng·h/mL
- MRT (Rattus norvegicus [20]): 2.576 h
- VRT (Rattus norvegicus [21]): 4.423 hr2
- clearance [22]: 90.5 mL/min/kg
- Vd [23]: 6.23 L/kg
- beta t1/2 (Rattus norvegicus [24]): 0.795 h
- Cmax [25]: 5870 ng/mL
- IC50 (cells): 23.5 µM
- IC50 (U-937): 10.2 µM
- IC50 (HCT-116): 26 µM
- IC50 (HepG2): 14.2 µM
